These results are taken from paper PMC10010335, “Depletion of Mannose Receptor–Positive Tumor-associated Macrophages via a Peptide-targeted Star-shaped Polyglutamate Inhibits Breast Cancer Progression in Mice” (Cancer Research Communications, 2022).

Where a SMILES comes first, the peptide text is derived from it. Where no end group is shown, it is not given here. The star is where a group is joined. 5FAM = O=C1OC2(c3ccc(O)cc3Oc3cc(O)ccc32)c2ccc(C(=O)*)cc21; Ahx = NCCCCCC(=O)O

Data set [1] concerns primary human M2-resembling (MCSF + IL4 polarized) macrophages. Description: In vitro cytotoxicity (MTT), M2-resembling macrophages. The format is cell-based. Conditions: 15-minute incubation at 33 and 100 μmol/L DOX, washed, 48 hours, N = 3 wells. As for the experimental part:
Human peripheral blood mononuclear cells (PBMC) were purified from human blood buffy coat using Ficoll Paque Plus (GE Healthcare, catalog no. 17-1440-02) reagent and CD14^+ microbeads (MACS Miltenyi Biotec, catalog no. 130-050-201) as described previously ([42]). A total of 1.2 × 10^5 cells in 50 μL of RPMI1640 medium were seeded on an FBS-coated 96-well plate. To obtain optimal macrophage attachment and M2 resembling, 50 μL of IL4 (50 ng/mL, BioLegend, catalog no. 574002) and MCSF (50 ng/mL, BioLegend, catalog no. 574802) mixture was added to the wells. The medium was replenished by substituting half of the medium with fresh medium containing IL4 and MCSF every other day for 6 days. To obtain M1-resembling macrophages, monocytes were incubated with M-CSF (50 ng/mL) for 6 days, replenishing every other day with fresh medium containing MCSF and on day 6, 50 μL of MCSF, lipopolysaccharide (LPS, 100 ng/mL, Sigma-Aldrich, catalog no. L4391) and IFNγ (20 ng/mL, BioLegend, catalog no. 570202) was added and incubated overnight. […] After incubation, wells were washed, fresh medium added, and cells incubated for 48 hours at 37°C. […] Absorbance was read at 580 nm using a plate reader (Tecan Sunrise) and the corresponding Magellan 7 program. […] After that, cells were washed 2× with 200 μL of RB and read using BD Accuri 6 plus (BD Biosciences). […]

For data set [2], the system named is orthotopic TNBC (4T1 cells). Description: OximUNO treatment of orthotopic TNBC. The format is in vivo, Balb/c mice. As for the experimental part: Two tumor models were used for treatment studies: the orthotopic TNBC model where 5 × 10^4 4T1 cells in 50 μL of PBS were injected subcutaneously into fourth mammary fat pad; and the experimental metastasis of TNBC model where 2 × 10^5 4T1-GFP cells in 100 μL of PBS were intravenously injected.
A total of 5 × 10^4 4T1 cells in 50 μL of PBS were subcutaneously injected into the fourth mammary fat pad of 8–12 weeks old female Balb/c mice. On day 7, mice were sorted into four groups by tumor volume measured using a digital caliper (Mitutoyo). Tumor volume was calculated on the basis of the formula (W^2 × L)/2, where W is the tumor's width and L is the tumor's length. […] Mouse bodyweight and tumor volumes were monitored every other day. […] CD206 was detected using rat anti-mouse CD206 (dilution 1/200), CD8 using rat anti-mouse CD8 (dilution 1/75 BioLegend, catalog no. 100701), FOXP3 using rat anti-mouse FOXP3 (dilution 1/75, BioLegend, catalog no. 126401) as primary antibodies, Alexa Fluor goat anti-rat 647 (dilution 1/300 for CD206 and 1/200 for CD8, FOXP3,) was used as a secondary antibody for all markers. […]
For H&E staining, 2-μm–thick sections were cut from paraffin-embedded blocks. […] Images were analyzed using the QuPath program (version 0.1.2; ref. [52]). […] Stained heart sections were also scanned using a slide scanner and analysed with the QuPath program. […]

The conditions of data set [3]: cited from earlier work. From the text: On the basis of these ante ...
The conditions of data set [4]: same mice strain, sex, age; cited from earlier work.

Regarding `COc1cccc2c1C(=O)c1c(O)c3c(c(O)c1C2=O)C[C@@](O)(C(=O)CO)C[C@@H]3O[C@H]1C[C@H](N)[C@H](O)[C@H](C)O1` [DOX, doxorubicin], the “toxicity (MTT cell viability)” value in data set [1] is on record as “only displayed toxicity in MCSF + IL4 polarized macrophages at 100 μmol/L”. In addition, the “CD206 expression in primary tumor” value in data set [2] (IF, compared with PBS) is recorded as “upregulated CD206 expression”. For the same compound, in data set [2] (i.p., 2 mg/kg of DOX every other day, nine injections), the mouse bodyweight result is recorded as “significant decrease in mouse bodyweight”.
Take `C[C@H](NC(=O)CNC(=O)[C@@H]1CCCN1C(=O)[C@H](CO)NC(=O)[C@H](CS)NC(=O)CCCCCNC(=O)c1ccc2c(c1)C(=O)OC21c2ccc(O)cc2Oc2cc(O)ccc21)C(=O)N[C@@H](CCCCN)C(=O)O` [FAM-mUNO] ({5FAM-Ahx}-CSPGAK-OH): in data set [3], the “degradation of FAM coupled through an amide bond, in serum” value is reported as “negligible degradation”.
In the case of CSPGAK-OH [mUNO], in data set [4], the “half-life, intraperitoneal versus intravenous administration” value is listed as “substantially longer half-life”.
